{
  "source": "patent US7514245B2",
  "about": "“Method for producing chiral α-hydroxycarboxylic acids by enzymatic hydrolysis of chiral cyanohydrins” (DSM Fine Chemicals Austria NFG GmbH & Co. KG, priority 2003, dated 2009)",
  "key": {"[1]": {"biological_target": "T1, nitrile hydratase of Rhodococcus erythropolis NCIMB 11540 (Rhodococcus erythropolis, UniProt P13448+P13449)", "T1 construct": "made in house; host or cells: E. coli B BL21 (plasmid pMS470Nhase7.3 or pMSNhasetactac7.3), crude lysate", "T1 sequence (P13448 1-207)": "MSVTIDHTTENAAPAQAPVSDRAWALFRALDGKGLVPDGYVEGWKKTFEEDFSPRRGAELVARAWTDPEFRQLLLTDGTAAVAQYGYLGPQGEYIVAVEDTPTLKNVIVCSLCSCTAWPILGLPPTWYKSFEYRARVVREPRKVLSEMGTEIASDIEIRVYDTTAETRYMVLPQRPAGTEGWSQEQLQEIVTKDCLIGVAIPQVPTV", "T1 sequence (P13449 1-212)": "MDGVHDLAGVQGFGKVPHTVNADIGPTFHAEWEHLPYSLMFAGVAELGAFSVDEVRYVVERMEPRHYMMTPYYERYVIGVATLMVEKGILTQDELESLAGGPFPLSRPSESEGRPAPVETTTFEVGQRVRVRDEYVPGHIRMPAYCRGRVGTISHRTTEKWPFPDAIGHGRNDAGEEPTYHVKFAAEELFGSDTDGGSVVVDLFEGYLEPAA", "assay": "Hydrolysis using the recombinant enzyme (crude lysate of E. coli clone 7.3)", "type": "biochemical", "details": "substrate approximately 10 mM, 5% DMSO, 30° C., pH 7; for Activity of the nitrile hydratase: relative to 2-hydroxy-4-phenylbutyronitrile (100%)", "description": "In these reactions, cloned nitrile hydratase of Rhodococcus erythropolis NCIMB 11540 was used as crude lysate of E. coli clone 7.3 (produced according to Example 9).\n50 μl of crude lysate were diluted with 425 μl of buffer (K/Na—PO4 buffer, pH 7, 50 mM) and admixed with 25 μl of an approximately 220 mM substrate solution in DMSO (5 mg of protein/ml substrate concentration approximately 10 mM, 5% DMSO). The reaction was carried out in the Thermomixer at 30° C. and 1000 rpm. After 0, 2, 4, 6, 8, 10, 15, 20, 30, 60 and 120 minutes, in each case one Eppendorf was admixed with 0.5 ml of 1N HCl. After centrifugation (5 min, 13 000 rpm) and corresponding dilution, the concentrations of cyanohydrin and hydroxyamide were determined by HPLC. The activity of the nitrile hydratase was determined from the velocity of formation of hydroxyamide (gradient in the initial range). The standard substrate (100% activity) used was 2-hydroxy-4-phenylbutyronitile. The activity in the hydrolysis of the other substrates was compared with the activity on 2-hydroxy-4-phenylbutyronitrile (Tab. 5)."}, "[2]": {"tested_on": "Rhodococcus erythropolis NCIMB 11540 cells", "assay": "Enzymatic hydrolysis at different substrate concentrations, Experiment 4.1", "type": "cell-based", "details": "5% DMSO, 30° C.", "description": "In experiment 4.1, the reaction was carried out on an analytical scale (reaction volume 1 ml) using 3 substrate concentrations (2.2 g/l, 6.6 g/l, 13.2 g/l).\nThe biocatalyst was produced according to Example 1, Variant II, 2 l of fermentation medium, harvest after 20 hours (OD546 6.1). The cells from 8 times 10 ml of fermentation solution were centrifuged off in culture tubes. The resultant cell mass was washed once in each case with 2 ml K/Na-phosphate buffer (pH 6.5, 50 mM). The contents of 2 tubes were lyophilized for determining the dry weight. • Weight: 1. 37 mg of lyophilized cells/10 ml fermentation solution • 2. 30 mg\nThe contents of the remaining 6 tubes were resuspended in 950 μl of buffer (OD approximately 40) and transferred to Eppendorfs. To each of these cell suspensions were added 50 μl of variously concentrated substrate solutions (3 concentrations, parallel batches, 5% DMSO as cosolvent). The Eppendorfs were shaken on the Thermomixer at 30° C. and 1000 rpm. For monitoring the conversion rate, in each case 200 μl were withdrawn and admixed with 200 μl of 1N HCl. After centrifugation (5 min, 13 000 rpm) and dilution, the conversion rates were determined by HPLC.\nFollowing concentrations of (R)-2-chloromandelonitrile were used: • a. Substrate solution: 11 mg of (R)-2-chloromandelonitrile in 250 μl of DMSO (approximately 260 mM) • Substrate concentration in the batch: 2.2 g/l (13.1 mM) • b. Substrate solution: 33 mg of (R)-2-chloromandelonitrile in 250 μl of DMSO (approximately […]) • Substrate concentration in the batch: substrate concentration: 6.6 g/l (39.4 mM) • c. Substrate solution: 66 mg of (R)-2-chloromandelonitrile in 250 μl of DMSO (approximately 1580 mM) • Substrate concentration in the batch: 13.2 g/l (78.8 mM)"}},
  "data": [
    {"smiles": "Cc1ccc(C(O)C#N)cc1", "note": "(stereo not shown)", "values": [
      {"measurement": "Activity of the nitrile hydratase", "setting": "[1]", "result": 60, "unit": "%"}
    ]},
    {"smiles": "N#CC(O)CCc1ccccc1", "note": "(stereo not shown) [drawing 3]", "values": [
      {"measurement": "Activity of the nitrile hydratase", "setting": "[1]", "result": 100, "unit": "%"}
    ]},
    {"smiles": "N#CC(O)c1ccccc1Cl", "note": "(stereo not shown)", "values": [
      {"measurement": "Activity of the nitrile hydratase", "setting": "[1]", "result": 100, "unit": "%"}
    ]},
    {"smiles": "N#CC(O)CCc1ccccc1", "note": "(stereo not shown) [2-hydroxy-4-phenylbutyronitrile]", "values": [
      {"measurement": "activity of the nitrile hydratase in the crude lysate", "setting": "[1]; E. coli clone 7.3", "result": "approximately 0.3 μmol·mg^−1·min^−1"}
    ]},
    {"smiles": "O=C(O)[C@H](O)c1ccccc1Cl", "note": "[(R)-2-chloromandelic acid]", "values": [
      {"measurement": "formation of (R)-2-chloromandelic acid", "setting": "[2]; batch a: 2.2 g/l (13.1 mM) (R)-2-chloromandelonitrile, 10 min", "result": 77, "unit": "%"},
      {"measurement": "formation of (R)-2-chloromandelic acid", "setting": "[2]; batch a: 2.2 g/l (13.1 mM), 20 min", "result": 86, "unit": "%"},
      {"measurement": "formation of (R)-2-chloromandelic acid", "setting": "[2]; batch a: 2.2 g/l (13.1 mM), 30 min", "result": 92, "unit": "%"},
      {"measurement": "formation of (R)-2-chloromandelic acid", "setting": "[2]; batch a: 2.2 g/l (13.1 mM), 40 min", "result": 94, "unit": "%"},
      {"measurement": "formation of (R)-2-chloromandelic acid", "setting": "[2]; batch a: 2.2 g/l (13.1 mM), 50 min", "result": 96, "unit": "%"},
      {"measurement": "formation of (R)-2-chloromandelic acid", "setting": "[2]; batch b: 6.6 g/l (39.4 mM), 10 min", "result": 45, "unit": "%"},
      {"measurement": "formation of (R)-2-chloromandelic acid", "setting": "[2]; batch b: 6.6 g/l (39.4 mM), 20 min", "result": 70, "unit": "%"},
      {"measurement": "formation of (R)-2-chloromandelic acid", "setting": "[2]; batch b: 6.6 g/l (39.4 mM), 30 min", "result": 82, "unit": "%"},
      {"measurement": "formation of (R)-2-chloromandelic acid", "setting": "[2]; batch b: 6.6 g/l (39.4 mM), 40 min", "result": 89, "unit": "%"},
      {"measurement": "formation of (R)-2-chloromandelic acid", "setting": "[2]; batch b: 6.6 g/l (39.4 mM), 50 min", "result": 95, "unit": "%"},
      {"measurement": "formation of (R)-2-chloromandelic acid", "setting": "[2]; batch c: 13.2 g/l (78.8 mM), 10 min", "result": 58, "unit": "%"},
      {"measurement": "formation of (R)-2-chloromandelic acid", "setting": "[2]; batch c: 13.2 g/l (78.8 mM), 20 min", "result": 85, "unit": "%"},
      {"measurement": "formation of (R)-2-chloromandelic acid", "setting": "[2]; batch c: 13.2 g/l (78.8 mM), 30 min", "result": 96, "unit": "%"},
      {"measurement": "formation of (R)-2-chloromandelic acid", "setting": "[2]; batch c: 13.2 g/l (78.8 mM), 40 min", "result": 98, "unit": "%"},
      {"measurement": "formation of (R)-2-chloromandelic acid", "setting": "[2]; batch c: 13.2 g/l (78.8 mM), 50 min", "result": 100, "unit": "%"}
    ]}
  ]
}
